Drawing on US20260098026A1, “M4 ACTIVATORS/MODULATORS AND USES THEREOF” (Cerevel Therapeutics, LLC, priority 2022, published 2026), this text covers EC50 and Emax for 44 molecules.

One may read the EC50 as the concentration needed to bring the measured effect to its halfway point. The term Emax denotes the greatest response seen or fitted, relative to the assay's reference.

Each structure is given as a SMILES string.

The first assay deals with T1, M3 muscarinic acetylcholine receptor (mAChR) (Homo sapiens, UniProt P20309).
T1 construct: expressed in transfected cells; host or cells: CHO-K1
T1 sequence (P20309 whole entry): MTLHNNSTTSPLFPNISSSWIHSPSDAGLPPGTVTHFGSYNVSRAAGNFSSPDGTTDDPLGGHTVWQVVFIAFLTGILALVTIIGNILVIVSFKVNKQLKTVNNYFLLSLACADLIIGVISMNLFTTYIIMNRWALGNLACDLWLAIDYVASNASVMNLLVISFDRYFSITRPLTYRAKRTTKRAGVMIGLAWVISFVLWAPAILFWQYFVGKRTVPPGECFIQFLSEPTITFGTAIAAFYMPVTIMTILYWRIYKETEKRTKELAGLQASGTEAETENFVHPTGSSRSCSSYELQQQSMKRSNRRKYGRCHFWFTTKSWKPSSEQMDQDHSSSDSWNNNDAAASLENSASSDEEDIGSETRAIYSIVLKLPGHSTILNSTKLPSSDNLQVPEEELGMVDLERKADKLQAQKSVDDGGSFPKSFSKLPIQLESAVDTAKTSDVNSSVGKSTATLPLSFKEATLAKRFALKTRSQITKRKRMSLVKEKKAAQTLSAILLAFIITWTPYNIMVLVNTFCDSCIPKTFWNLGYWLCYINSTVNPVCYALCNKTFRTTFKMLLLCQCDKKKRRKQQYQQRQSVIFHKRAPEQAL
Description: FLIPR calcium assay (Fluo 8), M3-overexpressing CHO-K1 cells. It is filed as cell-based. The following applies: FLIPR. As for the experimental part:
Stimulation of a Gq-coupled G-protein coupled receptors (GPCRs), result in an efflux of calcium from the endoplasmic reticulum to the cytoplasm (Berridge, 1993), thus rendering this assay appropriate for the assessment of M1, M3 and M5 receptors. CHO-K1 cells overexpressing the M1, M3, or M5 muscarinic acetylcholine receptor (mAChR) were dispensed at 15,000 cells per well in 30 μl volume to 384-well plates and grown overnight at 37° C. in a 5% CO2 atmosphere. Fluo-8 Solution, 10 μl per well, was added to each well and incubated for 30 minutes at 37° C. in a 5% CO2 atmosphere. Compounds diluted in Hanks' balanced salt solution (HBSS) were transferred to the cell assay plate at 10 μl per well, and then read on a FLIPR instrument. EC50 and Emax figures were calculated from the resulting data for each receptor subtype.
As for `CCOC(=O)N1CC2(C[C@H](N3CCN(c4cc(F)cnc4-c4cnccn4)CC3)CS2)C1` [Compound A225], the EC50 is above 10 µM.
Still for that read-out and setting: next, `CCOC(=O)N1CC2(CC[C@@H](N3CCC(c4cc(F)cnc4-c4ccc(F)cn4)CC3)C2)C1` [Compound A292]: above 10 µM; `CCOC(=O)N1CC2(CC[C@@H](N3CCN(c4cc(F)cnc4-c4cnn(C(C)C)n4)CC3)C2)C1` [Compound A257]: above 10 µM.
`CCOC(=O)N1CC2(CC[C@@H](N3CCN(c4cc(F)cnc4-c4ccnc(C)n4)CC3)C2)C1` [Compound A254]: the EC50 was above 10 µM.

Staying with this assay, now noted: FLIPR calcium.
As to `CCOC(=O)N1CC2(CC[C@@H](N3CCN(c4cccnc4-c4cncc(C#N)c4)CC3)C2)C1` [Compound A27], the EC50 was above 10 µM.
On the same count and under the same terms, as for `CCOC(=O)N1CC2(CC[C@H](N3CCN(c4cc(Cl)cnc4C4CCOCC4)CC3)C2)C1` (single isomer, unassigned) [Compound A16], the figure is above 10 µM.

In another assay the target is T2, M4 mAChR (Homo sapiens, UniProt P08173).
T2 construct: expressed in transfected cells; host or cells: CHO-K1
T2 sequence (P08173 1-479): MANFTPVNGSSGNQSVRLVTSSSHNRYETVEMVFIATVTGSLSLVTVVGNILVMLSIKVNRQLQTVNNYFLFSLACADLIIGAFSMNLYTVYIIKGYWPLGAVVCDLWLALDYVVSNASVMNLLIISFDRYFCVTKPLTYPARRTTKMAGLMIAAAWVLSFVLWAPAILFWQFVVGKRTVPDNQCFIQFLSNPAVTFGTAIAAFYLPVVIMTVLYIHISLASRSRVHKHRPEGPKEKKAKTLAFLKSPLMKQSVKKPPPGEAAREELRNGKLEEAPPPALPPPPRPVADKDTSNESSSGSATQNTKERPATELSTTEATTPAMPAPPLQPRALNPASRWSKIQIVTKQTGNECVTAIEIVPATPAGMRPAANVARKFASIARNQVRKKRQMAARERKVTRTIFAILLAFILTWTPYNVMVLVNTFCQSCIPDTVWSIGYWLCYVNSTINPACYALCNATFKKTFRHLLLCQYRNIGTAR
Kind of assay: cAMP TR-FRET assay with forskolin, M4-overexpressing CHO-K1 cells. It is filed as cell-based. The following applies: cAMP TR-FRET with forskolin. An excerpt: The M2 and M4 mACh receptors are Gi-coupled receptors which, upon activation, produce a decrease in cAMP. Assays were developed that measured the potency and efficacy of compounds at the M2 or M4 mAChR using M2- or M4-overexpressing CHO-K1 cell lines. Time-resolved fluorescence resonance energy transfer (TR-FRET) technology was used, where signal occurs as a result of transfer of energy if the donor molecule is in close proximity to an acceptor molecule when the molecules have bound to the molecule of interest. The cAMP detection is a competition binding assay, where cAMP produced by cells competes for binding with the labeled donor molecule to the anti-cAMP acceptor antibody. Due to the low basal levels of cAMP in the CHO-K1 cell line, forskolin was used to increase cAMP levels to enable assessment of agonist activity at the mAChR of interest.
(TR-FRET usually uses a lanthanide donor and a delayed reading to cut background.)
For `CCOC(=O)N1CC2(CC[C@H](N3CCC(c4cc(F)cnc4-c4cnccn4)CC3)C2)C1` (single isomer, unassigned) [Compound A12], the Emax lay in the range of 80 to 100%.
`CCOC(=O)N1CC2(CC[C@@H](N3CCN(c4cccnc4-c4cncc(OC(F)F)c4)CC3)C2)C1` [Compound A28] returned a maximal response (Emax) of 80 to 100%.
In turn, `CCOC(=O)N1CC2(CC[C@H](N3CCC(c4cc(F)cnc4-n4cc(C)nn4)CC3)C2)C1` (single isomer, unassigned) [Compound A24] displayed an Emax of 80 to 100%.
`CCOC(=O)N1CC2(CC[C@@H](N3CCC(c4cc(F)cnc4-c4nncs4)CC3)C2)C1` (single isomer, unassigned) [Compound A22] came in with an Emax of 80 to 100%.
The molecule `CCOC(=O)N1CC2(CC[C@H](N3CCC(c4cc(F)cnc4-c4nncs4)CC3)C2)C1` (single isomer, unassigned) [Compound A21] gave an Emax of 80 to 100%.
Take `CCOC(=O)N1CC2(CC[C@@H](N3CCC(O)(c4cc(F)cnc4-c4cnccn4)CC3)C2)C1` (single isomer, unassigned) [Compound A14]: the Emax lay in the range of 80 to 100%.
The same measure, in the same setting: as for `CCOC(=O)N1CC2(CC[C@@H](N3CCN(c4cc(F)cnc4-c4cscn4)CC3)C2)C1` [Compound A8, ethyl (6R)-6-[4-(5-fluoro-2-thiazol-4-yl-3-pyridyl)piperazin-1-yl]-2-azaspiro[3.4]octane-2-carboxylate], the figure is 80 to 100%; as for `CCOC(=O)N1CC2(CCC(N3CCN(c4cccnc4N4CCC4)CC3)C2)C1` (centres unmarked) [Compound A4, ethyl 6-(4-(2-(azetidin-1-yl)pyridin-3-yl)piperazin-1-yl)-2-azaspiro[3.4]octane-2-carboxylate], 80 to 100%; as for `CCOC(=O)N1CC2(CC[C@@H](N3CCN(c4cc(F)cnc4C4(F)CCOCC4)CC3)C2)C1` (single isomer, unassigned) [Compound A19], 80 to 100%.
`CCOC(=O)N1CC2(CC[C@@H](N3CCC(c4cc(F)cnc4-c4cnccn4)CC3)C2)C1` (single isomer, unassigned) [Compound A11]: the Emax was in the range of 80 to 100%.
The same measure, in the same setting: next, `CCOC(=O)N1CC2(CC[C@@H](N3CCC(c4cc(F)cnc4-n4cc(C)nn4)CC3)C2)C1` (single isomer, unassigned) [Compound A23]: 80 to 100%.

Still in this assay, the particulars now being: cAMP assay.
`CCOC(=O)N1CC2(CC[C@@H](N3CCN(c4cc(Cl)cnc4-n4nccn4)CC3)C2)C1` [Compound A262] showed an Emax of 80 to 100%.
On to `CCOC(=O)N1CC2(CC[C@@H](N3CCN(c4cc(F)cnc4-c4c[nH]c(=O)[nH]c4=O)CC3)C2)C1` [Compound A211], for which the Emax lay within 80 to 100%.
Molecule `CCOC(=O)N1CC2(CC[C@@H](N3CCN(c4cc(F)cnc4-c4nc(C)cs4)CC3)C2)C1` [Compound A267] displayed an Emax of 50 to 79.9%.
`CCOC(=O)N1CC2(CC[C@@H](N3CCN(c4cc(F)cnc4-c4ccsn4)CC3)C2)C1` [Compound A270]: the Emax is 80 to 100%.
On the same count and under the same terms, next, `CCOC(=O)N1CC2(CC[C@@H](N3CCN(c4cc(F)cnc4-c4nccs4)CC3)C2)C1` [Compound A286]: 80 to 100%; `CCOC(=O)N1CC2(CC[C@@H](N3CCN(c4cc(F)cnc4-c4ccns4)CC3)C2)C1` [Compound A213]: 80 to 100%.
On the same count and under the same terms, next, `CCOC(=O)N1CC2(CC[C@@H](N3CCN(c4cc(F)cnc4-c4cnsc4)CC3)C2)C1` [Compound A214]: 80 to 100%.
Same read-out and setting: next, `CCOC(=O)N1CC2(CC[C@@H](N3CCN(c4cc(F)cnc4C4CC5(COC5)C4)CC3)C2)C1` [Compound A277]: 80 to 100%.
`CCOC(=O)N1CC2(CC[C@@H](N3CCN(c4cc(F)cnc4-c4nccnc4OC)CC3)C2)C1` [Compound A238] came in with an Emax of 19 to 49.9%.
Still for that read-out and setting: next, `CCOC(=O)N1CC2(CC[C@@H](N3CCN(c4cc(F)cnc4-c4ncccc4Cl)CC3)C2)C1` [Compound A287]: 80 to 100%; `CCOC(=O)N1CC2(CC[C@@H](N3CCN(c4cc(F)cnc4-c4cccnn4)CC3)C2)C1` [Compound A242]: 80 to 100%; `CCOC(=O)N1CC2(CC[C@@H](N3CCN(c4cc(F)cnc4C4CCC(F)(F)CC4)CC3)C2)C1` [Compound A275]: 80 to 100%.
As for `CCOC(=O)N1CC2(CC[C@@H](N3CCN(c4cccnc4-c4nncs4)CC3)C2)C1` [Compound A264], the Emax was 80 to 100%.
Same read-out and setting: as for `CCOC(=O)N1CC2(CC[C@@H](N3CCN(c4cc(Cl)cnc4-c4cnc(C)nc4)CC3)C2)C1` [Compound A271], the figure is 80 to 100%; as for `CCOC(=O)N1CC2(CC[C@@H](N3CCN(c4cc(F)cnc4-c4ccc(C)nn4)CC3)C2)C1` [Compound A241], 50 to 79.9%; as for `CCOC(=O)N1CC2(CC[C@@H](N3CCN(c4cc(Cl)cnc4Br)CC3)C2)C1` [Compound A263], 80 to 100%.
Still for that read-out and setting: as for `CCOC(=O)N1CC2(CC[C@@H](N3CCN(c4cc(F)cnc4-c4ncc(C)s4)CC3)C2)C1` [Compound A266], the figure is 80 to 100%; as for `CCOC(=O)N1CC2(CC[C@@H](N3CCN(c4cc(F)cnc4-c4ncc(F)cc4F)CC3)C2)C1` [Compound A240], 80 to 100%; as for `CCOC(=O)N1CC2(CC[C@@H](N3CCN(c4cccnc4C4CCOCC4)CC3)C2)C1` [Compound A278], 80 to 100%.
Still for that read-out and setting: next, `CCOC(=O)N1CC2(CC[C@@H](N3CCN(c4cc(F)cnc4C4CCOC4)CC3)C2)C1` (single isomer, unassigned) [Compound A281]: 80 to 100%; `CCOC(=O)N1CC2(CC[C@@H](N3CCN(c4cc(F)cnc4OC4(C)CCOCC4)CC3)C2)C1` [Compound A261]: 80 to 100%.
As to `CCOC(=O)N1CC2(CC[C@@H](N3CCN(c4cc(Cl)cnc4-c4cscn4)CC3)C2)C1` [Compound A212], the Emax fell in the range of 80 to 100%.
The same measure, in the same setting: as for `CCOC(=O)N1CC2(CC[C@@H](N3CCN(c4cc(Cl)cnc4-c4cnc(C)cn4)CC3)C2)C1` [Compound A239], the figure is 80 to 100%; as for `CCOC(=O)N1CC2(CC[C@@H](N3CCN(c4cc(F)cnc4-n4cnnc4)CC3)C2)C1` [Compound A260], 80 to 100%.
The same measure, in the same setting: as for `CCOC(=O)N1CC2(CC[C@@H](N3CCN(c4cc(Cl)cnc4-c4ncccc4F)CC3)C2)C1` [Compound A268], the figure is 80 to 100%; as for `CCOC(=O)N1CC2(CC[C@@H](N3CCN(c4cc(F)cnc4-c4nncs4)CC3)C2)C1` [Compound A236], 80 to 100%.
Take `CCOC(=O)N1CC2(CC[C@@H](N3CCN(c4cc(Cl)cnc4-c4ncccc4Cl)CC3)C2)C1` [Compound A269]: the Emax was in the range of 80 to 100%.
